According to patent publication US7368470B2, “Substituted 3-pyrrolidine-indole derivatives” (Gruenenthal GmbH, priority 2003, dated 2008):

Key:
[1] = biological target: T1, noradrenalin reuptake (NA uptake) (Rattus norvegicus, UniProt Q9WTR4); assay: Noradrenalin reuptake inhibition (NA uptake inhibition) in rat brain synaptosomes; type: biochemical; details: synaptosomes from male rats' brains
T1 construct: These vesicular particles were isolated from the hypothalamus of male rats' brains for NA uptake; from tissue; host or cells: rat brain synaptosomes (P2 fraction; cerebral cortex / hypothalamus of male rats)
T1 sequence (Q9WTR4 1-597): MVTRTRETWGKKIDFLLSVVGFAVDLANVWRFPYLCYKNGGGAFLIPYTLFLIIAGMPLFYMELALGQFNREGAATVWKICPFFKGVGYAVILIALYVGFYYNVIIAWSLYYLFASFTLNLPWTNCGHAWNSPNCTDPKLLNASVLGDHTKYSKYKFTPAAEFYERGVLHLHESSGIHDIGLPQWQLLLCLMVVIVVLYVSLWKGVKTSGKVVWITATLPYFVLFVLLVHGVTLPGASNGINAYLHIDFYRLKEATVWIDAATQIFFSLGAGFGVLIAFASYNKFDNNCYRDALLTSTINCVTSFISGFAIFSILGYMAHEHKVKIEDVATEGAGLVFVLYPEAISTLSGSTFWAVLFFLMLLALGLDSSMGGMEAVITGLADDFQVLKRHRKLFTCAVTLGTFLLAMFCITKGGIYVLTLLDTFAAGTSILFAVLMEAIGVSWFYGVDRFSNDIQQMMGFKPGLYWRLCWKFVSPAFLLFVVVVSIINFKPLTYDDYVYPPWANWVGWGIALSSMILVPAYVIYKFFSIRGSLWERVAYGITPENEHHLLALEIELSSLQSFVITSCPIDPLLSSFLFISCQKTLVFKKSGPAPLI
Excerpt: b) Tests on Noradrenalin Reuptake Inhibition
In order to be able to carry out these in vitro studies, synaptosomes from rats' cerebral cortices were freshly isolated. A “P2” fraction, prepared according to Gray and Whittaker's instructions (E. G. Gray and V. P. Whittaker (1962) J. Anat. 76, 79-88) was used in each case. These vesicular particles were isolated from the hypothalamus of male rats' brains for NA uptake.
A detailed description of the method may be found in the literature (M. Ch. Frink, H.-H. Hennies, W. Englberger, M. Haurand and B. Wilffert (1996) Arzneim.-Frosch./Drug Res. 46 (III), 11, 1029-1036).

[2] = biological target: T2, serotonin reuptake (5HT uptake) (Rattus norvegicus, UniProt P31652); assay: Serotonin reuptake inhibition (5HT uptake inhibition) in rat brain synaptosomes; type: biochemical; details: synaptosomes from male rats' brains
T2 construct: These vesicular particles were isolated from the hypothalamus of male rats' brains for 5HT uptake; from tissue; host or cells: rat brain synaptosomes (P2 fraction; cerebral cortex / hypothalamus of male rats)
T2 sequence (P31652 whole entry): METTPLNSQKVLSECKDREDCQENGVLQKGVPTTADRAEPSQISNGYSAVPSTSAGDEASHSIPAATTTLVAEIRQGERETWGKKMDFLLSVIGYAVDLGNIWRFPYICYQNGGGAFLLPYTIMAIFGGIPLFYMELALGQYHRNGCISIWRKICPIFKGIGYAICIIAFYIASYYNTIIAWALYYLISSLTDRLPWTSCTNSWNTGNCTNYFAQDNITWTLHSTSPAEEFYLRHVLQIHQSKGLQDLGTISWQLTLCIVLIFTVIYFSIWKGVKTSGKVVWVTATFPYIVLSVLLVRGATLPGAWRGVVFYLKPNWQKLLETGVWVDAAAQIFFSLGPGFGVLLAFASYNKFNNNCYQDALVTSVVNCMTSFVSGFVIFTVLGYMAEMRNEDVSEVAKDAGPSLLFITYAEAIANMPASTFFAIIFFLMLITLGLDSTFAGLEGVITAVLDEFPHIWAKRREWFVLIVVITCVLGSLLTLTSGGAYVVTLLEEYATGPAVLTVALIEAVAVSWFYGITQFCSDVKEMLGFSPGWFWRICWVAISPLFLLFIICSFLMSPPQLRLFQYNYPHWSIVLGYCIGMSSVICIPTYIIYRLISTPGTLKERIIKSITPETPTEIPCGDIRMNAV
Excerpt: a) Tests on Serotonin Reuptake Inhibition
In order to be able to carry out these in vitro studies, synaptosomes from rats' cerebral cortices were freshly isolated. A “P2” fraction prepared according to Gray and Whittaker's instructions (E. G. Gray and V. P. Whittaker (1962) J. Anat. 76, 79-88) was used in each case. These vesicular particles were isolated from the hypothalamus of male rats' brains for 5HT uptake.
A detailed description of the method may be found in the literature (M. Ch. Frink, H.-H. Hennies, W. Englberger, M. Haurand and B. Wilffert (1996) Arzneim.-Forsch./Drug Res. 46 (III), 11, 1029-1036).

[3] = test system: binding site 2 of the sodium channel (batrachotoxin (BTX) binding site); assay: Binding test on the sodium channel, binding site 2 (BTX bond), [3H]-batrachotoxinin A20 α-benzoate as ligand; parameters: species or system rat; details: 10 μM; rat cerebrocortex synaptosomes; ligand 10 nM; 25° C., 120 min

Row | Structure (SMILES) | inhibition at 10 µM [1] [%] | inhibition at 10 µM [2] [%] | BTX bond, % inhibition [10 μM] [3] [%] | NA-uptake, inhibition [10 μM] [1] | 5HT uptake, % inhibition [10 μM] [2] [%]
1 | O=C(c1ccc([N+](=O)[O-])cc1Cl)N1CCC(c2cn(Cc3cccc(F)c3)c3ccccc23)C1 (stereo not shown) [Compound 20, (2-chloro-4-nitro-phenyl)-{3-[1-(3-fluoro-benzyl)-1H-indol-3-yl]-pyrrolidin-1-yl}-methanone] | 43 | 89 | 91 |  | 
2 | Cn1cc(C2CCN(C(=O)C=Cc3ccccc3)C2)c2ccccc21 (stereo not shown) [Compound 26, 1-[3-(1-methyl-1H-indol-3-yl)-pyrrolidin-1-yl]-3-phenyl-propenone] |  |  | 93 | 44 | 62
3 | Cc1ccc(F)c(C(=O)N2CCC(c3cn(Cc4ccc(C#N)cc4)c4ccccc34)C2)c1Cl (stereo not shown) [Compound 31, 4-{3-[1-(2-chloro-6-fluoro-3-methyl-benzoyl)-pyrrolidin-3-yl]-indol-1-ylmethyl}-benzonitrile] | 41 | 62 | 92 |  | 
4 | N#Cc1ccc(Cn2cc(C3CCN(C(=O)c4ccc5nonc5c4)C3)c3ccccc32)cc1 (stereo not shown) [Compound 34, 4-{3-[1-(benzo[1,2,5]oxadiazole-5-carbonyl)-pyrrolidin-3-yl]-indol-1-ylmethyl}-benzonitrile] | 49 | 57 | 91 |  | 
5 | CCn1cc(C2CCN(C(=O)CCc3ccccc3)C2)c2ccccc21 (stereo not shown) [Compound 35, 1-[3-(1-ethyl-1H-indol-3-yl)-pyrrolidin-1-yl]-3-phenyl-propan-1-one] | 48 | 68 | 84 |  | 
6 | CCn1cc(C2CCN(C(=O)c3cc(C(F)(F)F)ccc3Cl)C2)c2ccccc21 (stereo not shown) [Compound 38, (2-chloro-5-trifluoromethyl-phenyl)-[3-(1-ethyl-1H-indol-3-yl)-pyrrolidin-1-yl]-methanone] | 49 |  | 89 |  | 
7 | O=C(c1ccc([N+](=O)[O-])cc1Cl)N1CCC(c2cn(Cc3ccc(C(F)(F)F)cc3)c3ccccc23)C1 (stereo not shown) [Compound 39] |  |  | 90 | 41 | 43
8 | Cc1nc(C(F)(F)F)ccc1C(=O)N1CCC(c2cn(Cc3cccc(F)c3)c3ccccc23)C1 (stereo not shown) [Compound 42, {3-[1-(3-fluoro-benzyl)-1H-indol-3-yl]-pyrrolidin-1-yl}-(2-methyl-6-trifluoromethyl-pyridin-3-yl)-methanone] | 58 | 82 | 96 |  | 
9 | Cn1cc(C2CCN(C(=O)c3ccc(-c4ccccc4)cc3)C2)c2ccccc21 (stereo not shown) [Compound 45, Biphenyl-4-yl-[3-(1-methyl-1H-indol-3-yl)-pyrrolidin-1-yl]-methanone] | 43 | 80 | 82 |  | 
10 | COc1cccc(Cn2cc(C3CCN(C(=O)Cc4ccc(Cl)cc4)C3)c3ccccc32)c1 (stereo not shown) [Compound 46, 2-(4-chloro-phenyl)-1-{3-[1-(3-methoxy-benzyl)-1H-indol-3-yl]-pyrrolidin-1-yl}-ethanone] | 20 | 46 | 88 |  | 
11 | CCn1cc(C2CCN(CC(=O)Nc3scc(C)c3C#N)C2)c2ccccc21 (stereo not shown) [Compound 52, N-(3-cyano-4-methyl-thiophen-2-yl)-2-[3-(1-ethyl-1H-indol-3-yl)-pyrrolidin-1-yl]-acetamide] | 54 | 79 |  |  | 
